From paper PMC8209153, “Improvement in aqueous solubility of achiral symmetric cyclofenil by modification to a chiral asymmetric analog” (Scientific Reports, 2021) come the findings set out here.

A short description of data set [1]: Thermodynamic aqueous solubility of the most stable crystals. It is filed as physicochemical. The settings on record: phosphate buffer/EtOH (6:4), aqueous with cosolvent or surfactant or cyclodextrin, thermodynamic from solid; mixture of 0.067 M phosphate buffer (pH 6.8) and EtOH (6:4); shaken 48 h at 4 °C; most stable crystals. As for the experimental part: The crystals were ground with an agate mortar and suspended in a mixture of 0.067 M phosphate buffer (pH 6.8) and EtOH (6:4). The suspension was shaken for 48 h at 4 °C, then filtered through a Millipore Millex-LG filter (0.20 μm). The filtrate was diluted in DMF and subjected to HPLC. The solubility was calculated by the absolute calibration curve method. We used a mixed solvent because the solubility in 0.067 M phosphate buffer (pH 6.8) was too low to allow quantification. EtOH is used clinically as a solubilizer for insoluble drugs such as taxol and pacritaxel. When the solutions were shaken at 37 °C, hydrolysis of the ester moiety occurred, and therefore the suspensions were shaken at 4 °C.

A short description of data set [2]: Hydrolysis of prodrugs without hepatocytes. It is filed as in vitro ADME. The settings on record: 50 μM, 2 h, 37 °C. As for the experimental part:
(§1) Test compounds (final 50 μM) in DMSO (final 0.5%) were added to a suspension of human hepatocytes (HMCS1S, Thermo Fisher Scientific) at a density of 1.0×10^6 cells/mL. The cells were incubated at 37 °C in humidified incubator (5% CO2) for 2 h, and then acetonitrile was added to stop the reaction. The mixture was vortexed and centrifuged at 15000 rpm for 10 min. HPLC analysis of the supernatant was performed on an analytical column (ODS reversed-phase column, 5 μm, 4.6 mm x 150 mm) eluted with a mobile phase consisting of H2O and CH3CN at a flow rate of 1.0 mL/min at 37 °C, with UV monitoring at 254 nm. Because some analogs were hydrolyzed in the absence of hepatocytes, we also evaluated the hydrolysis rate without hepatocytes.

The subject of data set [3] is human cryopreserved hepatocytes. Nature of the data set: Metabolic rate of prodrugs in human cryopreserved hepatocytes. It is filed as in vitro ADME. Particulars: human hepatocytes 1.0×10^6 cells/mL, 50 μM, 2 h, 37 °C. On the procedure:
The metabolic rate of prodrugs was evaluated using human cryopreserved hepatocytes (Table 3). Although the metabolic rate of 3d with a bulky acyl group was decreased, most of the asymmetric structural analogs, including those with improved aqueous solubility (3b, 4a, (R)-4c), were metabolized to the active form as quickly as 1. Thus, we concluded that the chemical modifications applied here had little effect on the metabolic rate.
as §1

The nature of data set [4]: Membrane permeability by retention on IAM column. Particulars: IAM.PC.DD2 column, 0.1 M phosphate buffer (pH 6.8) in 60% CH3CN, 1.0 mL/min, 37 °C. It is filed as in vitro ADME. As for the experimental part:
Membrane permeability was determined by HPLC on an IAM.PC.DD2 column (Regis Technologies, Inc., 10 μm, 300 Å, 30 mm × 4.6 mm) eluted with mobile phase consisting of 0.1 M phosphate buffer (pH 6.8) and CH3CN (4:6) at a flow rate of 1.0 mL/min, with UV monitoring at 254 nm, 37 °C.
Firstly, we evaluated membrane permeability by using an Immobilized Artificial Membrane (IAM) column, which contains silica gel bearing phosphatidylcholine and widely utilized to predict membrane permeability[31],[32].

Data set [5] can be described thus: LogP. It is filed as physicochemical. The source says: LogP values of all analogs were higher than that of 1, as expected. […] The observation that the measured crystal densities of 3b, 4a and (R)-4c were lower than that of 1 supports this idea.
Data set [6] is described as follows: Aqueous solubility in 0.067 M phosphate buffer pH 7.4. It is filed as physicochemical. As for the experimental part:
Cyclofenil (1) is an antagonist of estrogen receptors (ER) α and β that is clinically used to treat menstrual disturbances, anovulatory infertility and menopausal symptoms (Fig. 1). However, 1 has poor aqueous solubility (< 1 μg/mL in 0.067 M phosphate buffer pH 7.4). We considered that this low solubility might be due to the symmetric structure (σ = 2, point group: C2v), and we hypothesized that chemical modification of 1 to an asymmetric structure (point group: Cs and C1) would improve the aqueous solubility. To investigate the relationship between molecular shape (symmetry) and aqueous solubility, we focused on a small chemical modification, that is, introduction of a hydrophobic alkyl group. Cyclofenil (1) is a prodrug that is hydrolyzed by esterases after administration, and the active form is diol 2. Therefore, we initially considered that replacement of an acetyl group on 1 with a different acyl group (3a–d) might improve the aqueous solubility without loss of biological activity. As a second approach, we designed methylated analogs 4a–c substituted at the 2-/3-position of the phenyl group or the 3-position of the cyclohexyl group, respectively. We also designed symmetrical analogs 5a–c and 6 for comparison.

Data set [7] in a line: Crystal density (X-ray crystallography). Particulars: measured crystal density. It is filed as physicochemical.

≈ marks a conversion by molar mass, not a printed value.

A word on the solubility: it is how much of the substance goes into solution per volume. By logP is commonly meant a log measure of how a compound divides between an organic and an aqueous phase. As for `CC(=O)Oc1ccc(C(=C2CCCCC2)c2ccc(OC(C)=O)cc2)cc1` [Compound 1, cyclofenil], in data set [1], the solubility at 48 h stood at 7.76 µg/mL (≈ 21.3 µM). For the same compound, the “Hydrolysis rate without hepatocytes” value in data set [2] was found to be 14.8%. For the same compound, the “Hydrolysis rate with hepatocytes” value in data set [3] worked out at 100%. Moreover, the “Retention time on IAM column” value in data set [4] worked out at 3.15 min. Also, the logP in data set [5] was found to be 4.91. The same compound showed a solubility in data set [6] of less than 1 µg/mL. This compound came in with a Crystal density in data set [7] of 1.268 g/mL.
